What was measured:
[1] = molecular target: T1, human liver glycogen phosphorylase a (HLGPa) (Homo sapiens, UniProt P06737); test: Human liver glycogen phosphorylase a enzymatic activity assay; type: biochemical; conditions: 15 nM HLGPa, coupled resorufin fluorescence readout, 15 min preincubation; assay run with and without 10 mM glucose, not stated which applies
T1 construct: creating a full-length cDNA fused at the 5′ end to codons for methionine-glycine-alanine-histidine; 6x histidine tag (leader Met-Gly-Ala-His6-Gly-Gly) (N); Tev protease cleavage site (Glu-Asn-Leu-Tyr-Phe-Gln-Gly-Gly) (N); made in house; host or cells: E. coli (bacterial expression plasmid pTXK1007LTev)
T1 sequence (P06737 2-847): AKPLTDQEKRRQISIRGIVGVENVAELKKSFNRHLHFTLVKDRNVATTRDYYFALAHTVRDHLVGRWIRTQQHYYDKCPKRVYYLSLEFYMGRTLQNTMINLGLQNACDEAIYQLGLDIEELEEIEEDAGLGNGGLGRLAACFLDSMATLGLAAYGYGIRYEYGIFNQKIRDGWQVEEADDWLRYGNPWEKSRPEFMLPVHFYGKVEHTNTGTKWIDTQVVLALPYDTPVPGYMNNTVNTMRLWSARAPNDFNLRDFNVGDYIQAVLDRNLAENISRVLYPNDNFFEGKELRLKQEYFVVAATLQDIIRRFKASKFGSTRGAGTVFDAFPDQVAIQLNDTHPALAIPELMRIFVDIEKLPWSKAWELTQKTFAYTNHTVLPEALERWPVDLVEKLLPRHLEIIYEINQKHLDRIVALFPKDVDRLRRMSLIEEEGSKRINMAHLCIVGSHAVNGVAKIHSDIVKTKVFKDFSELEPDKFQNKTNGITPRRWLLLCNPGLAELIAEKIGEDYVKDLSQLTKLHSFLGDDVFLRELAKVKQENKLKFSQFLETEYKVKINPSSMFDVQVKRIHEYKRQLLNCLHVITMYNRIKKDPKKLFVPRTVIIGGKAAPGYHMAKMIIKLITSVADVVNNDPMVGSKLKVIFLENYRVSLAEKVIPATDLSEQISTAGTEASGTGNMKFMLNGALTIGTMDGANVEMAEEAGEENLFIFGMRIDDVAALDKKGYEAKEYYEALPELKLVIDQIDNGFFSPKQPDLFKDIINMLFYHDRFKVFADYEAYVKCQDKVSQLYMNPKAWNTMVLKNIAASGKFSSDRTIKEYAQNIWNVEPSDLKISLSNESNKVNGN
Description: The purified glycogen phosphorylase (GP) enzyme, wherein glycogen phosphorylase is in the activated “a” state, referred to as human liver glycogen phosphorylase a (HLGPa), can be obtained according to the following procedures.
Human liver glycogen phosphorylase cDNA was amplified by polymerase chain reaction (PCR) from a commercially available human liver cDNA library (BD Biosciences). The cDNA was amplified as 2 overlapping fragments using the primers 5′[…]3′ with 5′[…]3′ and 5′[…]3′ with 5′[…]3′. PCR conditions were 94° C. 1 min., 55° C. 1 min., 72° C. 2 min. for 40 cycles using the enzyme Pfu Turbo (Stratagene), 0.5% DMSO, 250 uM each nucleotide triphosphate, and 0.4 uM each primer plus the buffer recommended by the polymerase manufacturer. Each PCR fragment was molecularly cloned and the DNA sequence of each insert was determined. […] The DNA sequence of both strands of the cDNA in pTXK1007LTev was determined. […]
Frozen purified glycogen phosphorylase (HLGPb) was thawed in at 4° C. then dialyzed overnight into 50 mM HEPES, 100 mM NaCl, pH 7.4. […] The degree of phosphorylation was monitored by following the increase in activity at 10 minute intervals using the assay system outlined below. […]

male CD rats = test: In vivo glucagon challenge model; set-up: species or system rat; conditions: glucagon 10 ug/kg + Sandostatin 0.5 mg/kg i.v. 2 hr after dosing, serum glucose 0-20 min
Experimental: Jugular vein cannulated male CD rats (220-260 g) (Charles Rivers, Raleigh, N.C.) were received 1-2 days after cannulation, housed individually on Alpha-dri™ bedding (Shepherd Specialty Papers, Inc., Kalamazoo, Mich.) with free access to food (Lab Diet 5001, PMI Nutrition International, Brentwood, Mo.) and water and maintained on a 12 h light/dark cycle at 21° C. and 50% relative humidity for 3-4 days prior to the glucagon challenge studies. On the day of the study, the rats were sorted by body weight into treatment groups (N=4-5) and housed individually in shoe box cages with clean Alpha-dri bedding. The cannula lines were opened by removal of 0.2 ml blood and flushed with 0.2 ml sterile saline. After a one hour acclimation, blood samples were collected to determine basal glucose and the rats were orally dosed with vehicle (5% DMSO: 30% Solutol HS15: 20% PEG400: 45% 25 mM N-methylglucamine) or drug (5 ml/kg). Two hr after drug dosing, a time zero blood sample (0.4 ml) was collected for determination of glucose and the rats were dosed through the jugular vein with Sandostatin, 0.5 mg/kg, (Novartis Pharmaceuticals Corp., East Hanover, N.J.) and glucagon, 10 ug/kg (Bedford Laboratories, Bedford, Ohio). Blood samples were collected after 10 and 20 min for glucose determination. Whole blood was placed in a Terumo Capiject blood collection tube (Terumo Medical Corp., Elkton, Md.), allowed to sit at room temperature for 20-30 minutes and then centrifuged (3,000×G) to obtain serum. Serum levels of glucose were determined using an Olympus AU640™ clinical chemistry immuno-analyzer (Olympus America Inc., Melville, N.Y.). The % reduction (% R) of the vehicle glucose AUC was calculated for each drug treatment using the formula % reduction=100*1−(AUC drug/AUC vehicle), where AUG was calculated from serum glucose values using the equation AUG=(T0+T10)/2*10+(T10+T20)/2*10−(T0*20).

SMILES: COCCOc1ccc(C(=O)N[C@H](C(=O)O)[C@@H](C)OC(C)(C)C)c(NC(=O)Nc2c(C)cc(CC3CC3)cc2C)c1 [Example 1, N-[(2-[({[4-(Cyclopropylmethyl)-2,6-dimethylphenyl]amino}carbonyl)amino]-4-{[2-(methyloxy)ethyl]oxy}phenyl)carbonyl]-O-(1,1-dimethylethyl)-L-threonine]
- IC50 [1]: 4 nM
- % R (% reduction of the vehicle glucose AUC) (male CD rats; 0.1 mg/kg oral): 4%
- % R (% reduction of the vehicle glucose AUC) (male CD rats; 0.5 mg/kg oral): 36%
- % R (% reduction of the vehicle glucose AUC) (male CD rats; 2 mg/kg oral): 48%
- % R (% reduction of the vehicle glucose AUC) (male CD rats; 5 mg/kg oral): 76%
